Results from patent US6548688B1, “Diammonium ruthenium diethylenethriaminepentaacetate or hydrates thereof and process for the preparation of both” (Chubu Chelest Co., Ltd., priority 1999, dated 2003).
Entries after “also recorded” stand apart in the source; their conditions may differ. Like-named read-outs stand apart in the source and are kept apart here.

What was measured:
Format in all cases: physicochemical
[1] = solubility to water; details: 25° C.
[2] = pH of 5% aqueous solution
[3] = stability in the atmospheric condition and in aqueous solution

SMILES: O=C([O-])CN(CCN1CCN2CC(=O)[O][Ru]([O]C(=O)C1)[O]C(=O)C2)CC(=O)[O-] [diammonium ruthenium diethylenetriaminepentaacetate]
- solubility to water [1]: 53 mass %
- solubility ([1]; crystals of Example 1): 53%
- pH of 5% aqueous solution [2]: 5.1
- pH of 5% aqueous solution ([2]; listed as DTPA.Ru(III).(NH4)2.2H2O): 5.10
- precipitation in aqueous solution on change of pH ([3]; acid or alkali added into the aqueous solution to change pH): does not precipitate; also recorded: without precipitating
- storage stability (decomposition or transformation) ([3]; in the atmospheric condition and in the aqueous solution): can be stably preserved; also recorded: not decomposed
